Entries after “also recorded” stand apart in the source; their conditions may differ. *1 amine or outer side, *2 acyl side, *3 side chain or, on linkers, in order; H or OH if unused. Where a SMILES comes first, the peptide text is derived from it. Bridges are numbered along the chain shown (N, C = ends). Roman numbers before positions name the chains, in order. [ ]: non-standard residue; d: D form. Actinocin(9to1) = Cc1c2oc3c(C)ccc(C(=O)[*:1])c3nc-2c(C(=O)[*:2])c(N)c1=O; NMeV = CN[C@H](C(=O)O)C(C)C; Sar = CNCC(=O)O
Key:
hBMP-6 mRNA [1] = experiment: Real-time PCR of hBMP-6 mRNA with or without Actinomycin D; format: cell-based, human; conditions: for hBMP-6 mRNA expression: treated with E2, p<0.05
Description: In order to determine whether estrogen regulates hBMP-6 at the level of transcription, we conducted Real-time PCR assays measuring hBMP-6 mRNA expression in cells pulse-chase treated with or without Actinomycin D, which inhibits […] (FIG. 8).

hBMP-6 mRNA [2] = experiment: RT-PCR of hBMP-6 mRNA in engineered hMSCs (qualitative); format: cell-based, human; conditions: E2 10^−7 M, 24 hours
Experimental: H MSCs were infected with 100 pfu/cell adeno-LacZ, adeno-ER-α or adeno-ER-β.
RNA was isolated utilizing the TRIzol Reagent (Life Technologies, USA), according to manufacturer's protocol. RT-PCR was performed as described previously (Zhou et al., 2001). Forward and reverse primers for human ERα were: 5′-[…]-3′ (SEQ ID NO:6) and 5′-[…]-3′ (SEQ ID NO:7), respectively, and were designed according to the human ERα sequence (Green et al., 1986). Forward and reverse primers for human ERβ were: 5′-[…]-3′ (SEQ ID NO:8), and 5′-[…]-3′ (SEQ ID NO:9), respectively, designed according to human ERβ sequence (Moore et al., 1998). Primers for the hBMP-6 (458 bp) (Rickard et al., 1998), and internal control RPL19 (190 bp) (Orly et al., 1994) sequences were as described previously.
PCR conditions used for hERα and hERβ amplification were as follows: 30 cycles at 94° C. for 1 minute, 60° C. for 1 minute and 72° C. for 2 minute. Conditions used for hBMP-6 reverse transcription and PCR amplification were: incubation with RT, followed by 30 cycles of 94° C. for 1 minute, 55° C. for 1 minute and 72° C. for 2 minute in an MJ MiniCycler (MJ Research, USA). RT-PCR products of hBMP-6 were cloned into pGEM-T Easy vector (A1360, Promega), which following sequencing confirmed that the RT-PCR product was the hBMP-6 sequence.

hBMP-6 promoter = experiment: hBMP-6 promoter-Luc reporter in C3H10T1/2 cells; format: cell-based, mouse; conditions: 10^−8 M E2, 24 hours
ERβ [3] = molecular target: T1, ERβ (Homo sapiens, UniProt Q92731); experiment: ERE-tk-Luc reporter in C3H10T1/2 cells co-transfected with ERβ; format: cell-based; design: expressed in transfected cells; conditions: mouse C3H10T1/2 cells co-transfected with ERβ; 10^−8 M E2, 24 hours
T1 sequence (Q92731 whole entry): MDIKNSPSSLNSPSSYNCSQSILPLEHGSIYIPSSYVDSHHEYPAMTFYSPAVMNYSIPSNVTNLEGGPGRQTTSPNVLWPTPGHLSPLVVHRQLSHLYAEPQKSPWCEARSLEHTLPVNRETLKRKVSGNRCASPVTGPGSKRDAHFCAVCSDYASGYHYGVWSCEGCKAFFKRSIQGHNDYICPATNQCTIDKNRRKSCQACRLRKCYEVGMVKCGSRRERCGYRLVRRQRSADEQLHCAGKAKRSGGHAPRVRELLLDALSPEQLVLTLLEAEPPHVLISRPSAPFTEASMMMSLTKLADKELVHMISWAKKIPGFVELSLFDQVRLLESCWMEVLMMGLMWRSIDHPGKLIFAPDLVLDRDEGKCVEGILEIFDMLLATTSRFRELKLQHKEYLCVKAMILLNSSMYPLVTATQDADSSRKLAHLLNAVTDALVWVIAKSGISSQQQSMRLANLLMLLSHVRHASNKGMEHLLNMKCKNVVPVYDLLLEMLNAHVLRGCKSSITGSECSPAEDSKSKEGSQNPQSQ

ERβ [4] = molecular target: T1, ERβ; experiment: ERE-tk-luciferase reporter in hMSCs infected with adeno-ERβ; format: cell-based; design: expressed in transfected cells; host or cells: human mesenchymal stem cells (hMSCs), adenoviral transduction with Ad5-CMV-ERβ (long form; gift of Women Health Institute, Wyeth); conditions: hMSCs infected with adeno-ERE-tk-luc, adeno-ERβ and adeno-LacZ; 10^−8 M E2, 24 hours; over vehicle control
hBMP-6 mRNA [5] = experiment: Real Time RT-PCR of hBMP-6 mRNA in engineered hMSCs; format: cell-based, human; conditions: 10^−7 M E2, 24 hours
Experimental: (§1) hMSCs were infected in vitro at 80% confluence with Ad5-CMV-ERα, Ad5-CMV-ERβ and Ad5-CMV-LacZ at 100 pfu/cell, for 1 hour in serum-free DMEM after which DMEM supplemented with 10% FCS was added, as previously described (Bodine et al., 1997 and 1999). Efficiency of infection was estimated via β-gal activity determination, utilizing the Galacto-Light Chemiluminescent Reporter Assay System Kit (Tropix of PE Biosystems, USA). […] Five experiments, each in triplicate were conducted, standard error is represented.

estrogen receptors (Ers) = conditions: hMSCs with ERE-tk-luciferase construct and adeno-lacZ construct; five donors
Experimental: as §1

| Structure (SMILES) | effect of Actinomycin D on up-regulation of hBMP-6 mRNA by E2 (hBMP-6 mRNA [1]; hMSCs engineered with ERα or ERβ, pulse-chase treated) | hBMP-6 mRNA expression (hBMP-6 mRNA [1]; cells transfected with ERα) | hBMP-6 mRNA expression (hBMP-6 mRNA [1]; cells transfected with ERβ) | hBMP-6 mRNA detection by RT-PCR (hBMP-6 mRNA [2]; hMSCs transduced with adeno-ERα 100 pfu/cell) | hBMP-6 mRNA detection by RT-PCR (hBMP-6 mRNA [2]; hMSCs transduced with adeno-ERβ 100 pfu/cell) | hBMP-6 mRNA detection by RT-PCR (hBMP-6 mRNA [2]; hMSCs transduced with adeno-LacZ 100 pfu/cell) | hBMP-6 promoter-Luc luminescence (hBMP-6 promoter; mouse C3H10T1/2 cells co-transfected with ERα) | hBMP-6 promoter-Luc luminescence (hBMP-6 promoter; mouse C3H10T1/2 cells co-transfected with ERβ) | ERE-tk-Luc luminescence (ERβ [3]) | increase in luciferase activity (ERβ [4]) | increase in hBMP-6 mRNA expression (hBMP-6 mRNA [5]; hMSCs infected with Adeno-ERα 100 pfu/cell) | increase in hBMP-6 mRNA expression (hBMP-6 mRNA [5]; hMSCs infected with Adeno-ERβ 100 pfu/cell) | stimulation of hBMP-6 mRNA expression (hBMP-6 mRNA [5]; hMSCs infected with Adeno-LacZ) | luciferase activity following E2 treatment (estrogen receptors (Ers)) |
| --- | --- | --- | --- | --- | --- | --- | --- | --- | --- | --- | --- | --- | --- | --- |
| Cc1c2oc3c(C)ccc(C(=O)N[C@@H]4C(=O)N[C@H](C(C)C)C(=O)N5CCC[C@H]5C(=O)N(C)CC(=O)N(C)[C@@H](C(C)C)C(=O)O[C@@H]4C)c3nc-2c(C(=O)N[C@@H]2C(=O)N[C@H](C(C)C)C(=O)N3CCC[C@H]3C(=O)N(C)CC(=O)N(C)[C@@H](C(C)C)C(=O)O[C@@H]2C)c(N)c1=O [Actinomycin D] (I: T[dV]P[Sar][NMeV] / II: T[dV]P[Sar][NMeV]; ester I:1-I:C, II:1-II:C; linker I:N-II:N via Actinocin(9to1)) | no statistical difference; also recorded: does not block |  |  |  |  |  |  |  |  |  |  |  |  |  |
| C[C@]12CC[C@@H]3c4ccc(O)cc4CC[C@H]3[C@@H]1CC[C@@H]2O [E2, 17β-estradiol] |  | significantly increased | significantly increased | qualitatively detectable levels | qualitatively detectable levels | did not | did not result in enhanced luminescence over background levels | did not result in enhanced luminescence over background levels | significant luminescence | 6 fold | 3.2 fold | 2.0 fold | not | failed to produce luciferase activity |
